We go through three compounds from patent publication US20100281567A1, “TRANSGENIC PLANTS HAVING ALTERED LEVELS OF AROMATIC AMINO ACIDS AND METABOLITES DERIVED THEREFROM” (priority 2007, published 2010).

Holding throughout (format): in vivo, Arabidopsis thaliana
The subject of assay [1] is Arabidopsis plants. Nature of the assay: Sensitivity of germination to external application of phenylalanine. Conditions: PheA* genotypes compared to control genotype; 4 mM phenylalanine in medium. Here is the method: FIG. 11A: Morphological phenotype of the control genotype (a, e) and the PheA* expressing genotypes p5 (b, f), p9 (c, g) and p17 (d, h). Plants were at the age of 10 days (a-d) and two months (e-f). FIG. 11B: Seeds of the above control and transgenic plants were germinated on media lacking (left) or containing (right) 4 mM Phe.
Amino acids are generally toxic to plants when added externally at relatively high concentrations. We therefore also used this trait to further confirm that the PheA* plants overproduce phenylalanine, by testing for sensitivity to external application of phenylalanine.

Assay [2] has as its system Arabidopsis plants. Kind of assay: Effect of the tryptophan analog 5-methyl tryptophan on growth of transgenic plants. Conditions: plants p17, p9 and p5 expressing 35S:PRO-TP-PheA*-3HA; 100 μM, three weeks. On the procedure:
FIG. 10 illustrates the effect of tryptophan analog on transgenic plants expressing: (i) the 35S:PRO-TP-PheA*-3HA gene (p5, p9; p17); (ii) dominant mutation, resistant to tryptophan analogs due to high levels of tryptophan (5× normal) and anthranilate synthase (2× normal), amt1-1; (iii) control plants expressing an empty Ti vector (con); and (iv) wild type Arabidopsis Colombia ecotype (col). FIG. 10A: Photograph of plants growing for three weeks on zero and 100 μM 5-methyl tryptophan (5MT). FIG. 10B: Quantitative analysis of the number of seedlings whose growth was arrested by 5MT.
To evaluate the biosynthesis level of tryptophan, the effects of tryptophan analog on the transgenic plants of the present invention and on positive-control and control plants were examined. Plants used were as follows: i) plants of the present invention transformed with the 35S:PRO-TP-PheA*-3HA construct; (ii) positive-control transgenic plants having the dominant mutation amt1-1, which are resistant to tryptophan analogs due to high levels of tryptophan (5× normal) and anthranilate synthase (2× normal), the first enzyme of tryptophan biosynthesis; (iii) control plants expressing an empty Ti vector; and (iv) wild type Arabidopsis Colombia ecotype (col). Plants were grown for three weeks on zero and 100 μM 5-methyl tryptophan (5MT).

Assay [3] relates to Arabidopsis plants. Kind of assay: Effect of the HPPD inhibitor Isoxaflutole on growth of control and transgenic Arabidopsis plants. The note with it: 10 ppb Isoxaflutole in MS medium. On the procedure:
Plants were grown on MS medium in the presence of 10 ppb Isoxaflutole. […] FIG. 9A: Chlorophyll content. FIG. 9B: Photograph of the plants.
Western blot analysis was performed with anti-HA tag antibodies, in order to identify the mutated plants which are translated the chemeric gene (Stepansky A and Galili G 2003 Plant Physiol 133, 1407-1415). Additionally, T2 generation plants were examined and lines with a single insertion gene were selected based on 3:1 genetic segregation. For testing the growth of the transgenic plants producing elevated concentrations of the compounds of the invention, homozygous PheA* plants were germinated on regular Nitch medium. The 4-Hydroxy-phenylpyruvate dioxygenase (HPPD) inhibitor Isoxaflutole was used as previously described (Rippert P et al. 2004 Plant Physiol., 134:92-100).
Tyrosine is catabolized in plants to a number of metabolites including hydroxyl-phenylpyruvate (p-HPP), homogentistic acid (HGA) and tocopherols. One of the enzymes in the Tyr catabolism pathways is 4-Hydroxy-phenylpyruvate dioxygenase (HPPD), which catalyzes the conversion of p-HPP to HGA. HGA is derived exclusively from the catabolism of tyrosine and is also a substrate for a number of other metabolites, such as tocopherols. […]

On to `N[C@@H](Cc1ccccc1)C(=O)O` [phenylalanine], for which the germination entry in the assay on Arabidopsis plants [1] is on record as “significantly inhibited”. For `Cc1ccc2[nH]cc(C[C@H](N)C(=O)O)c2c1` [5MT, 5-methyl tryptophan], the growth of plants result with Arabidopsis plants [2] is “strongly inhibited”.

For `CS(=O)(=O)c1cc(C(F)(F)F)ccc1C(=O)c1cnoc1C1CC1` [Isoxaflutole], the chlorotic symptoms entry in the assay on Arabidopsis plants [3] (control plants expressing an empty Ti plasmid) is given as “developed chlorotic symptoms”; in the assay on Arabidopsis plants [3] (transgenic plants expressing 35S:PRO-TP-PheA*-3HA) it was “remained green”.
